In patent US6031135A, “Trimethylsphingosine derivatives” (Oncomembrane, Inc., priority 1996, dated 2000):
Blank lines part the entries; values can stand above or below the compound they belong to.

How the values were obtained:
[1] = water solubility; assay type: physicochemical; settings: particularly at physiologic pH
[2] = tested on: HL60 cells; assay: HL60 adhesion on activated platelet-coated solid phase; assay type: cell-based, human; settings: thrombin-stimulated and PMA-stimulated platelets
Description: HL60 (a human promylelocytic cell line available from the ATCC under accession number CCL 240) adhesion on resting or activated platelet-coatedsolid phase was evaluated as follows. Each well of a 48-well plate (Costar Scientific, Cambridge, Mass.) was filled with a poly-L-lysine solution (100 μg/ml in PBS) and incubated for 1 hour. Each well then was washed with PBS and then 150 μl of PBS containing 6×10^7 resting or activated platelets were added to each well and the plate was incubated for 1 hour. Plates were centrifuged (300×g for 7 minutes) and incubated a further 30 minutes at room temperature. Bound platelets were fixed by addition of 0.1% (w/v) glutaraldehyde in PBS for 2 minutes at 4° C. Each well was washed with 10 mM glycine in PBS and plates were incubated with 5% (w/v) BSA containing 0.1% (w/v) sodium azide, 10 mM glycine in PBS for 1 hour at room temperature.

[3] = tested on: 47 kDa and 65 kDa proteins; assay: PMA-stimulated protein phosphorylation in 32P-labeled neutrophils; assay type: cell-based, human; settings: neutrophils pre-incubated with 15-45 μM, then 1.5 μM PMA
Description: Excess unbound components were removed by centrifugation and the pellets were resuspended in the same buffer, repeating twice. The cells then were divided into 7 treatment groups, each containing ≈1×10^7 cells in a total volume of 0.4 ml. TMS, SPN or DMS was added to a suspension and incubated at 37° C. for 10 min, followed by addition of PMA to a final concentration of 1.5 μM. Two minutes later, the reaction was terminated by adding 0.1 ml of Laemmli sample buffer and 20 mM EDTA, followed by heating at 100° C. for 5 min. Aliquots were separated through 10% sodium dodecyl sulfate gels using known procedures. ^32 P incorporation was visualized by autoradiography.

[4] = tested on: PK-C; settings: literature (Hannun & Bell; Merrill & Stevens); cited from earlier work
[5] = tested on: B16BL6 melanoma cells; assay: metastasis of B16BL6 melanoma cells (lung metastatic deposits in mice); assay type: in vivo, mouse; set-up: key to Inhibition of metastasis: +: effective; -: not effective
Description: BL6 cells were injected into mice and metastatic deposits in the lung were assessed after various treatments including route and timing, of administration.

[6] = tested on: PK-C; assay: PK-C activity bioassay (histone III-S or myelin basic protein substrate); assay type: biochemical, human (A431 cells) or mouse brain; set-up: key: +: effective; -: not effective
Description: In another in vitro assay, the influence of various compounds on PK-C activity was monitored. Certain tumor cells present high levels of PK-C activity. The human epidermoid carcinoma cell line A-431 (ATCC No. CRL 1555) was used in a bioassay for PK-C activity as described in Igarashi et al. (supra). Briefly, phosphatidylserine (5 μg/tube) and 1,2-diolein (0.05 μg/tube), with or without an appropriate quantity of a sphingosine derivative sample, were added in an organic solvent, ethanol or ethanol/chloroform, to a 1.5 ml tube (Sarstedt) and the mixture was evaporated under a N2 stream. The lipid mixture was sonicated in about 30 μl of 20 mM Tris-HCl (pH 7.5) for 30 minutes.
The resulting liposomes were supplemented with a buffer mixture comprising 25 mM Tris-HCl (pH 7.5), 10 mM MgCl2, […], 50 μM EGTA, 500 μM CaCl2, […] histone III-S or myelin basic protein and 20 μM γ[^32 P]-ATP (2×10^6 cpm) to a final volume of about 90 μl. […]
The precipitate was collected by centrifugation, washed twice with 1 ml of 25% TCA, then dissolved in 1 ml of 1 M NaOH containing 0.1% deoxycholate with slight heating (80° C. for ten minutes) and counted in a scintillation counter. […]

[7] = tested on: platelets; assay: platelet aggregation (aggregometer, thrombin or ADP); assay type: cell-based; set-up: key to Inhiition of PA: +: effective; -: not effective
Description: Platelets were isolated from platelet-rich plasma (purchased from the Oregon Red Cross, Portland, Oreg.). Contaminating erythrocytes were removed by centrifugation (80×g for 10 minutes). Platelets were obtained by centrifugation (300×g for 10 minutes), washed once in Tyrode buffer (pH 6.5) containing 22 mM trisodium citrate and 0.35% (w/v) BSA and resuspended in the same buffer to obtain a concentration of 1-2×10^9 platelets/ml. All procedures were performed at room temperature.
A suspension of platelets (about 3.5×10^8 /ml) in Tyrode buffer was preincubated with inhibitor compounds (H-7 [1-(5-isoquinolinylsulfonyl)-2-methylpiperazine, a synthetic protein kinase-C inhibitor purchased from Seikagaku America Inc., St. Petersburg, Fla.], Calphostin-C [a synthetic protein kinase-C inhibitor obtained from Dr. Saitoh, Kyowa Hakko Co., Ltd., Machida, Tokyo, Japan], sphingosine [purchased from Sigma, St. Louis, Mo.] and dimethylsphingosine and trimethylsphingosine [synthesized according to Igarashi et al., Biochem., 28, 6796, 1989]) followed by addition of thrombin or ADP (both purchased from Sigma). Platelet aggregation was evaluated by transmittance change using an aggregometer (Chrono-log Corp., Havertown, Pa.) equipped with a computer analyzer.

[8] = Preincubation with free derivative

SMILES: CCCCCCCCCCCCC/C=C/[C@@H](O)[C@@H](N)CO [sphingosine, Sphingosine]
water solubility [1]: less water soluble
HL60 cell binding [2]: minimally inhibited
phosphorylation of 47 kDa and 65 kDa proteins [3]: diminished significantly
PK-C activity [4]: inhibited

SMILES: COC(=O)CCCCCCCCCCCC/C=C/[C@@H](O)[C@H](CO)[N+](C)(C)C [Methylcarboxy TMS]
Inhibition of metastasis [5, 8]: -
PKC inhibition [6]: -
Inhiition of PA [7]: -

SMILES: CCCCCCCCCCCCCC#CC(O)C(CO)[N+](C)(C)C (stereo not shown) [4-alkyn-TMS]
Inhibition of metastasis ([5]; B16BL6 melanoma cells, no readable footnote on the cell): +

SMILES: CCCCCCCCCCCCCCCC(O)C(CO)[N+](C)(C)C (stereo not shown) [DHTMS]
Inhibition of metastasis ([5]; Experimental and spontaneous metastasis with liposomal formulation): +

water solubility [1]: less water soluble
SMILES: CCCCCCCCCCCCC/C=C/C(O)C(CO)NC (stereo not shown) [MMS, N-monomethylsphingosine]

water solubility [1]: less water soluble
SMILES: CCCCCCCCCCCCC/C=C/C(O)C(CO)N(C)C (stereo not shown) [DMS, N,N-dimethylsphingosine]
HL60 cell binding [2]: inhibited strongly
phosphorylation of 47 kDa and 65 kDa proteins [3]: diminished significantly

SMILES: C[N+](C)(C)[C@@H](CO)[C@H](O)/C=C/CCCCCCCCCCCCC(=O)O [Carboxy TMS]
Inhibition of metastasis [5, 8]: -
PKC inhibition [6]: -
Inhiition of PA [7]: -
